According to paper PMC9481570, “A small molecule antagonist of SMN disrupts the interaction between SMN and RNAP II” (Nature Communications, 2022):
Several values for one entry are separate records, joined by “and”; a condition that tells them apart may be missing. Equal values may be shown once.

Assays:
[1] = molecular target: T1, proteins displaced from immobilized biotin-Cmpd 1 pulldowns (U2OS cell lysate) (Homo sapiens, UniProt O94925); experiment: Affinity-purification and mass spectrometry (AP-MS) chemical proteomics, all proteins; assay type: binding; conditions: GN=GLS (O94925);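 on Difference: 200 µM free competitor with 20 µM biotin probe overnight in lysate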
T1 construct: endogenous in cells; host or cells: U2OS
Experimental: (§1) The samples for AP-MS were prepared following pulldown procedure as previously described with minor modifications. Briefly, U2OS cells were lysed in RIPA buffer and the cell lysate was equally divided into two groups: (1) DMSO group (control group): the cell lysate was incubated with 20 μM biotin-labeled compound 1; (2) Cpmd 1 group (sample group): the cell lysate was incubated with 20 μM biotin-labeled compound 1 and 200 μM free compound 1. Each group contains three biological replicates. They were incubated overnight at 4 °C, then 30 μL streptavidin beads (Thermo Fisher, 20353) was added and incubated at 4 °C for 1 h. The beads were then washed with RIPA buffer for 3 times, 10 min/time.
(§2) Beads were rinsed twice with 50 mM TEAB, pH 7.55, before eluting proteins with 25 μL of 5% SDS, 50 mM TEAB, pH 7.55. The sample was then centrifuged at 17,000 × g for 10 min to remove any debris. Proteins were reduced with 20 mM TCEP (Thermo Fisher, 77720) and incubated at 65 °C for 30 min. The sample was cooled to room temperature and 1 μL of 0.5 M iodoacetamide acid was added and allowed to react for 20 min in dark. Phosphoric acid (12%, 2.75 μL) was added to the protein solution, followed by adding 165 μL of binding buffer (90% methanol, 100 mM TEAB, pH 7.1). The resulting solution was added to S-Trap spin column (protifi.com) and passed through the column using a bench top centrifuge (30 s spin at 4000 × g). The spin column was washed with 400 μL of binding buffer and centrifuged. This step was repeated two more times. Then trypsin was added to the protein mixture at a mass ratio of 1:25 in 50 mM TEAB, pH 8.0, and the sample was incubated at 37 °C for 4 h. Peptides were eluted with 80 μL of 50 mM TEAB, followed by 80 μL of 0.2% formic acid, and finally 80 μL of 50% acetonitrile, 0.2% formic acid. The combined peptide solution was then dried in a speed vac and resuspended in 2% acetonitrile, 0.1% formic acid, 97.9% water and placed in an autosampler vial.
(§3) Samples were analyzed by nanoLC-MS/MS (nanoRSLC, Thermo Fisher) using an Aurora series (Ion Opticks) reversed phase HPLC column (25 cm length × 75 µm inner diameter) and directly injected to an Orbitrap Eclipse (Thermo Fisher) using a 120 min gradient (mobile phase A = 0.1% formic acid, mobile phase B = 99.9% acetonitrile with 0.1% formic acid; hold 2% B for 5 min, 2–6% B in 0.1 min, 6–25% in 100 min, 25–50% in 15 min) at a flow rate of 350 nL/min. Eluted peptide ions were analyzed using a data-dependent acquisition (DDA) method with resolution settings of 120,000 and 15,000 (at m/z 200) for MS1 and MS2 scans, respectively. DDA-selected peptides were fragmented using stepped high energy collisional dissociation (27, 32, and 37%).
(§4) The data of AP-MS were analyzed as a previously described method with minor modifications. Briefly, the raw MS files were searched with MaxQuant software (version 1.6.1.1, www.maxquant.org)[56] against the UniProt human protein database (www.uniprot.org) concatenated with common contaminants and the decoy database. The mass tolerance for precursor ions was set to 20 ppm and 4.5 ppm for the first and main search, respectively. The cysteine carbamidomethylation was set as fixed modification and methionine oxidation and N-terminal acetylation as variable modifications. Enzyme specificity was set to trypsin and a maximum missed cleavage was set as 2. The 1% false discovery rate (FDR) at both peptide and protein levels was applied for the analysis. Relative protein quantification was based on the label-free quantification incorporated in the MaxQuant software. The iBAQ intensity of proteins was obtained for the control and experimental samples. The missing iBAQ intensity was replaced by a random number, which was calculated from a normal distribution with a width of 0.3 and a downshift of 1.8 defined by Perseus software (version 1.6.5.0). The P-value was calculated by performing two-sample Student’s t-test. […]

[2] = molecular target: T2, proteins displaced from immobilized biotin-Cmpd 1 pulldowns (U2OS cell lysate) (Homo sapiens, UniProt Q14980); experiment: as above; assay type: binding; conditions: GN=NUMA1 (Q14980)
T2 construct: endogenous in cells; host or cells: U2OS
Experimental: as §1, §2, §3, §4

[3] = molecular target: T3, proteins displaced from immobilized biotin-Cmpd 1 pulldowns (U2OS cell lysate) (Homo sapiens, UniProt Q86UE4); experiment: as above; assay type: binding; conditions: GN=MTDH (Q86UE4)
T3 construct: endogenous in cells; host or cells: U2OS
Experimental: as §1, §2, §3, §4

[4] = molecular target: T4, proteins displaced from immobilized biotin-Cmpd 1 pulldowns (U2OS cell lysate) (Homo sapiens, UniProt O75369); experiment: as above; assay type: binding; conditions: GN=FLNB (O75369)
T4 construct: endogenous in cells; host or cells: U2OS
Experimental: as §1, §2, §3, §4

[5] = molecular target: T5, proteins displaced from immobilized biotin-Cmpd 1 pulldowns (U2OS cell lysate) (Homo sapiens, UniProt Q12873); experiment: as above; assay type: binding; conditions: GN=CHD3 (Q12873)
T5 construct: endogenous in cells; host or cells: U2OS
Experimental: as §1, §2, §3, §4

[6] = molecular target: T6, proteins displaced from immobilized biotin-Cmpd 1 pulldowns (U2OS cell lysate) (Homo sapiens, UniProt P62910); experiment: as above; assay type: binding; conditions: GN=RPL32 (P62910)
T6 construct: endogenous in cells; host or cells: U2OS
Experimental: as §1, §2, §3, §4

[7] = molecular target: T7, proteins displaced from immobilized biotin-Cmpd 1 pulldowns (U2OS cell lysate) (Homo sapiens, UniProt Q7Z2W4); experiment: as above; assay type: binding; conditions: GN=ZC3HAV1 (Q7Z2W4)
T7 construct: endogenous in cells; host or cells: U2OS
Experimental: as §1, §2, §3, §4

[8] = molecular target: T8, proteins displaced from immobilized biotin-Cmpd 1 pulldowns (U2OS cell lysate) (Homo sapiens, UniProt P62306); experiment: as above; assay type: binding; conditions: GN=SNRPF (P62306)
T8 construct: endogenous in cells; host or cells: U2OS
Experimental: as §1, §2, §3, §4

[9] = molecular target: T9, proteins displaced from immobilized biotin-Cmpd 1 pulldowns (U2OS cell lysate) (Homo sapiens, UniProt Q13200); experiment: as above; assay type: binding; conditions: GN=PSMD2 (Q13200)
T9 construct: endogenous in cells; host or cells: U2OS
Experimental: as §1, §2, §3, §4

[10] = system: GEMIN6; experiment: AP-MS chemical proteomics, GEMIN6; assay type: binding, human
Experimental: as §1, with “min/time. […]” for “min/time.”
as §3, with “DDA-selected peptides were fragmented using stepped high energy collisional dissociation (27, 32, and 37%).” left out

T2 sequence (Q14980 whole entry): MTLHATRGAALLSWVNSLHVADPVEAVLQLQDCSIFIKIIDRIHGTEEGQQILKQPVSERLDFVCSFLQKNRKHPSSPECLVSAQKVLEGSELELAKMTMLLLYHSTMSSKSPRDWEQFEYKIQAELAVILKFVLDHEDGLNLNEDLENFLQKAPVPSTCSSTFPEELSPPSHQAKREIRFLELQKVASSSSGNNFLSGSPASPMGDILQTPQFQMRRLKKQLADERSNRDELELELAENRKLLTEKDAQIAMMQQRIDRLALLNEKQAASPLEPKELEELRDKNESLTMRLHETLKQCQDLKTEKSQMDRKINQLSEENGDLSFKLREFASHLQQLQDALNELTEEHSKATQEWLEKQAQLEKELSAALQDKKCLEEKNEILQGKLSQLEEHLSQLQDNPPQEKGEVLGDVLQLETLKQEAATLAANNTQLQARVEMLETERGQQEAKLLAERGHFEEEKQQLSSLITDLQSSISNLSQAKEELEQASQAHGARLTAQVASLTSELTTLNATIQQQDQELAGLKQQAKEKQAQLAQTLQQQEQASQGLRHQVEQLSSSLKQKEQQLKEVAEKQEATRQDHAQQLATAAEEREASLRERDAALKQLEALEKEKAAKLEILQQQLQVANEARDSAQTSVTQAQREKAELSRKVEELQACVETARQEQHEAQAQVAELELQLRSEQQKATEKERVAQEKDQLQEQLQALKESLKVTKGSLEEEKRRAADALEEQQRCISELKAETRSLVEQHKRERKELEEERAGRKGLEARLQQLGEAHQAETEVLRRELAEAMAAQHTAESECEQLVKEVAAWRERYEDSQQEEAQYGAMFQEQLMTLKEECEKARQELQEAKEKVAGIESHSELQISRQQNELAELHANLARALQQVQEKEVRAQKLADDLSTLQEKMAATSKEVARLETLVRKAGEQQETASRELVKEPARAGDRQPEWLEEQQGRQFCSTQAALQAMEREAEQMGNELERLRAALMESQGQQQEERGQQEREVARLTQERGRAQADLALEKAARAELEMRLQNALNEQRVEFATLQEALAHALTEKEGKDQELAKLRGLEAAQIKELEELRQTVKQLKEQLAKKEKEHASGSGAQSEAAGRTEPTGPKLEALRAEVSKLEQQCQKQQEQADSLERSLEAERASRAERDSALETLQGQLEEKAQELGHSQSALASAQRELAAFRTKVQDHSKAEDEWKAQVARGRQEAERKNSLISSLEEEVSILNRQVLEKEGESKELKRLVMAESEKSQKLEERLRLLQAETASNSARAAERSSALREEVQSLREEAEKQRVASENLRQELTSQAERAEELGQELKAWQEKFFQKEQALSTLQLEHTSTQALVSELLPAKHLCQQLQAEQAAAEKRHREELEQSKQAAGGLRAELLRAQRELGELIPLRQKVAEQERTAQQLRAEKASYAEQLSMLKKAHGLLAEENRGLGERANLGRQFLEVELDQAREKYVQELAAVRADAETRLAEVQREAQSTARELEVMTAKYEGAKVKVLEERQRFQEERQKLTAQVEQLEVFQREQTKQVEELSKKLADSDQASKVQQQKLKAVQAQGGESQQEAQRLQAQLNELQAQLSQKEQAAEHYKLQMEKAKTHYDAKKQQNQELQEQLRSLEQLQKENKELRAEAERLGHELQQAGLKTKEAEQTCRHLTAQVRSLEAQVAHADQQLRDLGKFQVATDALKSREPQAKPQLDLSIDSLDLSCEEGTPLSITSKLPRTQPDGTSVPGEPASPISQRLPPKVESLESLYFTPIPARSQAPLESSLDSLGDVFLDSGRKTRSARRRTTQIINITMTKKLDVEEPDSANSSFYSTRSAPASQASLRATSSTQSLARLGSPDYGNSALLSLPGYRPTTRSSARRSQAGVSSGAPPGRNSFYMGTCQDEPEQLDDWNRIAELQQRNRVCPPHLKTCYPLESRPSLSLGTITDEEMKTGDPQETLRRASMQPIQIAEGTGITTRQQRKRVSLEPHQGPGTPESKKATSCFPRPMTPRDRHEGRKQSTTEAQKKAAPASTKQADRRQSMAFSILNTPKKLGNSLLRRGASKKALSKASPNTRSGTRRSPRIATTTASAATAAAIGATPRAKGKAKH
T5 sequence (Q12873 whole entry): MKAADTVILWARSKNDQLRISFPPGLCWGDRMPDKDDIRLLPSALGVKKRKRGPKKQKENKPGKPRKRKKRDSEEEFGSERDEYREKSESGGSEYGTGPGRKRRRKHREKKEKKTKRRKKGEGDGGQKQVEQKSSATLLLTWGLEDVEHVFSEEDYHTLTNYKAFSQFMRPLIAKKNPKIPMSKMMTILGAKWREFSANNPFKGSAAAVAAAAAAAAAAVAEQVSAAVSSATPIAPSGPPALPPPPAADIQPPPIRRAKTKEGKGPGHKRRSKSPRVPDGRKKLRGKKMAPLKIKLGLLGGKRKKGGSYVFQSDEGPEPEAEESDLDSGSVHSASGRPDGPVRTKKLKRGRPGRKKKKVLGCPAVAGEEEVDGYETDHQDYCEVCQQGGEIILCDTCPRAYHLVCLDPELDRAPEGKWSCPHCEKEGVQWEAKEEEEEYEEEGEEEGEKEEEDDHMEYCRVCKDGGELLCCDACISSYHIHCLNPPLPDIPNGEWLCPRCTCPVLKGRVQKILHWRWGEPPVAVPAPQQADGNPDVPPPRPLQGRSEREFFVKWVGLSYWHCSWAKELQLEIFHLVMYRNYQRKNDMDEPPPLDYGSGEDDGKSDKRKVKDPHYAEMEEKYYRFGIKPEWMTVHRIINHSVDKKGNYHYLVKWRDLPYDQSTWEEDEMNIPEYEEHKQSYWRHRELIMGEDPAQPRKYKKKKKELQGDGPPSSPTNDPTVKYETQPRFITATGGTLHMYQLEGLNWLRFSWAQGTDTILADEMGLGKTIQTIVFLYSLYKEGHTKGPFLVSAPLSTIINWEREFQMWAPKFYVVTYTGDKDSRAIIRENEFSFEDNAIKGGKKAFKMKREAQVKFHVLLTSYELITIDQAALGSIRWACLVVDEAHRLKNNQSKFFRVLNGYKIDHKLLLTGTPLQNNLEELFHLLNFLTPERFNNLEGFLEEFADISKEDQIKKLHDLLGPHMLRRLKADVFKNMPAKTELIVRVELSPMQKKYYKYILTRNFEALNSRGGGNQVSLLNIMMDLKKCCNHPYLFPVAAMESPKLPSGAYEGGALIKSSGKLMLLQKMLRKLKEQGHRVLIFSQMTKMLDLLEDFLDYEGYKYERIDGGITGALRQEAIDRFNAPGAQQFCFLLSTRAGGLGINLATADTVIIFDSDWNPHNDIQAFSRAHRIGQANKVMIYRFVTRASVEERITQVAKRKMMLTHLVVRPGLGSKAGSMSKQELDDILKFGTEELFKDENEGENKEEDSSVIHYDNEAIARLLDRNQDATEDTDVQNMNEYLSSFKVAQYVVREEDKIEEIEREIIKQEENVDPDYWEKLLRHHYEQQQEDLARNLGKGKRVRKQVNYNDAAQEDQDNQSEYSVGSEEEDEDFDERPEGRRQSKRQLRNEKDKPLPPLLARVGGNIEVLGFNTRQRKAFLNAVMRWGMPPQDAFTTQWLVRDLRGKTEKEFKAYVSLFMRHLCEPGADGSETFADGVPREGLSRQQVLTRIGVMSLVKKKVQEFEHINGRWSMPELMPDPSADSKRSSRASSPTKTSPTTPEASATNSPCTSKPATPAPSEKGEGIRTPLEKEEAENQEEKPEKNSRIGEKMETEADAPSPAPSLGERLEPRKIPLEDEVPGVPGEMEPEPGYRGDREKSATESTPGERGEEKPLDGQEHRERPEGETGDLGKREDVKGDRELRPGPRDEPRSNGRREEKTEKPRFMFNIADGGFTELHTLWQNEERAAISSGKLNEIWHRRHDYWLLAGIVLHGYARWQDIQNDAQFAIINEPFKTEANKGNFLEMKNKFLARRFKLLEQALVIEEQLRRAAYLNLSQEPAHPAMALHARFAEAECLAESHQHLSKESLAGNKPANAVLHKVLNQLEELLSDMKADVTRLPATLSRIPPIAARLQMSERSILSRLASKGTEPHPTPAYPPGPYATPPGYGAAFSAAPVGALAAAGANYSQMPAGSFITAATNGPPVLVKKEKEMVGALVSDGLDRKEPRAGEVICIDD
T3 sequence (Q86UE4 whole entry): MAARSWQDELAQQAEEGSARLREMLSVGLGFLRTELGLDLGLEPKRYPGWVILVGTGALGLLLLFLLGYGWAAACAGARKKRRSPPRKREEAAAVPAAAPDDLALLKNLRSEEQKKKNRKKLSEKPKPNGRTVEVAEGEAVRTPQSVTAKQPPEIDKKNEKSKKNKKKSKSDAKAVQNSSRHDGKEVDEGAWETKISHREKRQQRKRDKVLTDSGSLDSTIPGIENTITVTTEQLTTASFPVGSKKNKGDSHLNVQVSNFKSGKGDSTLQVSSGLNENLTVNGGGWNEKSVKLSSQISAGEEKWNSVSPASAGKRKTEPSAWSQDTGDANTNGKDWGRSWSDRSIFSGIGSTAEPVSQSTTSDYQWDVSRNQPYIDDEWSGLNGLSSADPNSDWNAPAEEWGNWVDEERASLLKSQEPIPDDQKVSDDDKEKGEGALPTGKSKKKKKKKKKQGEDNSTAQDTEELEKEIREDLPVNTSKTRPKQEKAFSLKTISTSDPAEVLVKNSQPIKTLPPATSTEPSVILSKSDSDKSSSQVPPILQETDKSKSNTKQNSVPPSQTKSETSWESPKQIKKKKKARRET
T8 sequence (P62306 whole entry): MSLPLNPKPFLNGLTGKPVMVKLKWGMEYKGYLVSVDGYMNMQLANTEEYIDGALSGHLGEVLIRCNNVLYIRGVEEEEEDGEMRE

Which results are given for `Cn1c2c(c(=N)c3c1CCC3)CCC2` [Compound 1, 4-methyl-2,3,4,5,6,7-hexahydrodicyclopenta[b,e]pyridin-8(1H)-imine]?
Difference ([1]; Cmpd minus DMSO, -LOG(P-value) 0.714958): 1.117; iBAQ Cmpd ([1]; replicates 1-3): 18.1344 and 18.3969 and 16.5727; Difference ([2]; Cmpd minus DMSO, -LOG(P-value) 0.722853): 1.264; iBAQ Cmpd ([2]; replicates 1-3): 20.9325 and 19.3521 and 19.3092; Difference ([3]; Cmpd minus DMSO, -LOG(P-value) 1.04359): 0.4116; iBAQ Cmpd ([3]; replicates 1-3): 19.4014 and 19.227 and 18.8879; Difference ([4]; Cmpd minus DMSO, -LOG(P-value) 0.706969): 1.057; iBAQ Cmpd ([4]; replicates 1-3): 17.1694 and 17.27 and 16.0757; Difference ([5]; Cmpd minus DMSO, -LOG(P-value) 0.756951): -1.815; iBAQ Cmpd ([5]; replicates 1-3): 14.8034 and 14.2721 and 13.9438; Difference ([6]; Cmpd minus DMSO, -LOG(P-value) 0.742167): 3.21; iBAQ Cmpd ([6]; replicates 1-3): 19.3082 and 19.1191 and 19.5272; Difference ([7]; Cmpd minus DMSO, -LOG(P-value) 1.54428): 1.228; iBAQ Cmpd ([7]; replicates 1-3): 18.1805 and 17.0719 and 17.7662; Difference ([8]; Cmpd minus DMSO, -LOG(P-value) 2.38454): -6.902; iBAQ Cmpd ([8]; replicates 1-3): 16.7845 and 14.607 and 12.7996; Difference ([9]; Cmpd minus DMSO, -LOG(P-value) 1.86828): -0.9512; iBAQ Cmpd ([9]; replicates 1-3): 17.2697 and 17.2993 and 16.9257; Difference ([10]; GN=GEMIN6 (Q8WXD5), Cmpd minus DMSO, -LOG(P-value) 2.19893): -5.406; log2 FC (Cmpd 1/DMSO), GEMIN6 ([10]; biotin-Cmpd 1 pulldown, competition with 200 μM compound 1 relative to DMSO, U2OS lysate): −5.4
